According to US8138119B2, “Alkoxyalkyl spirocyclic tetramic acids and tetronic acids” (Bayer Cropscience AG, priority 2005, dated 2012):

Tests used:
Type in all cases: in vivo
cereal = assay: Profiling test, herbicidal post-emergence action with safener: container trials with cereal in a greenhouse, Mefenpyr 1 day prior to herbicide application; conditions: summer barley, 28 days after application, 25 g of a.i./ha, without safener
Description: Seeds of monocotyledonous and dicotyledonous weed and crop plants are placed in sandy loam soil in wood fibre pots or in plastic pots, covered with soil and cultivated in a greenhouse, during the vegetation period also outdoors outside of the greenhouse, under good growth conditions. 2-3 weeks after sowing, the test plants are treated at the one- to three-leaf stage. The test compounds, formulated as wettable powders (WP) or liquid (EC), are, in various dosages with a water application rate of 300 l/ha (converted), with wetting agent (0.2 to 0.3%) added, sprayed onto the plants and the surface of the soil. […]
(§1) If it is additionally to be tested as to whether safeners can improve the plant compatibility of test substances in the case of crop plants, the following options are used for applying the safener: • seeds of the crop plants are, before sowing, dressed with the safener substance (the amount of safener stated in percent, based on the weight of the seed) • before the application of the test substances, the proper plants are sprayed with the safener at a certain application rate per hectare (usually 1 day before the application of the test substances) • the safener is applied together with the test substance as a tank mix (the amount of safener stated in g/ha or as a ratio, based on the herbicide).
(§2) By comparing the effect of the test substances on crop plants without or with safener treatment, it is possible to assess the effect of the safener substance.

maize = assay: Profiling test, herbicidal pre-emergence action with safener: container trials with maize in the greenhouse, Ex. II-e-5 1 day prior to herbicide application; conditions: 28 days after application, without safener
Description: Seeds of monocotyledonous and dicotyledonous weed and crop plants are placed in sandy loam soil in wood fibre pots or in plastic pots and covered with soil. The pots are watered slightly, and the soil surface is then treated with various dosages of the test compounds, formulated as wettable powders (WP) or liquid (EC), at a water application rate of 300 l/ha (converted). The pots with the plants are cultivated in a greenhouse, during the vegetation period also outdoors outside of the greenhouse, under good growth conditions. 3-4 weeks after sowing and the treatment of the pots, the activity of the preparations is rated visually in comparison to untreated controls (herbicidal activity in percent (%): 100% activity=the plants have died, 0% activity=like control plants).
as §1, with “pots of crop” for “proper”
as §2

[1] = tested on: caterpillars of the diamondback moth (Plutella xylostella); assay: Plutella test (PLUTMA); conditions: 100 ppm, cabbage leaves dipped
Description: (§3) Solvent: 7 parts by weight of dimethylformamide
(§4) Emulsifier: 2 parts by weight of alkylaryl polyglycol ether
(§5) To produce a suitable preparation of active compound, 1 part by weight of active compound is mixed with the stated amounts of solvent and emulsifier, and the concentrate is diluted with emulsifier-containing water to the desired concentration.
Cabbage leaves (Brassica oleracea) are treated by being dipped into the active compound preparation of the desired concentration and populated with caterpillars of the diamondback moth (Plutella xylostella) while the leaves are still moist.
(§6) After the desired period of time, the kill in % is determined. 100% means that all caterpillars have been killed; 0% means that none of the caterpillars have been killed.

[2] = tested on: caterpillars of the armyworm (Spodoptera exigua, resistant strain); assay: Spodoptera exigua test; resistant strain (SPODEX R); conditions: 100 ppm, cabbage leaves dipped
Description: as §3, §4, §5
Cabbage leaves (Brassica oleracea) are treated by being dipped into the active compound preparation of the desired concentration and populated with caterpillars of the armyworm (Spodoptera exigua, resistant strain) while the leaves are still moist.
as §6

[3] = tested on: caterpillars of the armyworm (Spodoptera exigua); assay: Spodoptera exigua test (SPODEX); conditions: 100 ppm, cabbage leaves dipped
Description: as §3, §4
To produce a suitable preparation of active compound, 1 part by weight of active compound is mixed with the stated amounts of solvent and emulsifier, and the concentrate is diluted with water to the desired concentration.
Cabbage leaves (Brassica oleracea) are treated by being dipped into the active compound preparation of the desired concentration and populated with caterpillars of the armyworm (Spodoptera exigua) while the leaves are still moist.
as §6

CCc1cc(Cl)cc(OC)c1C1=C(O)C2(CCC(COC)CC2)NC1=O (single isomer, unassigned) [Example I-1-a-4]
Summer barley observed (%) (cereal): 50%
Maize - Arsenal observed (%) (maize; 12.5 g of a.i./ha): 40%
Maize - Arsenal observed (%) (maize; 25 g of a.i./ha): 65%

COCC1CCC2(CC1)NC(=O)C(c1cc(-c3ccc(Cl)cc3)ccc1C)=C2O (single isomer, unassigned) [Example I-1-a-5]
efficacy (kill of caterpillars) [1]: ≥ 80%
efficacy (kill of caterpillars) [2]: ≥ 80%
efficacy (kill of caterpillars) [3]: ≥ 80%

CCOC(=O)OC1=C(c2c(Br)cc(C)cc2CC)C(=O)NC12CCC(COC)CC2 (single isomer, unassigned) [Example I-1-c-6]
Maize - Cecilia observed (%) (maize; 12.5 g of a.i./ha): 60%

CCOC(=O)OC1=C(c2c(CC)cc(Cl)cc2OC)C(=O)NC12CCC(COC)CC2 (single isomer, unassigned) [Example I-1-c-7]
Maize - Arsenal observed (%) (maize; 25 g of a.i./ha): 60%

CCOC(=O)OC1=C(c2c(C)cc(C)cc2C)C(=O)NC12CCCC(COC)C2 (single isomer, unassigned) [Example I-1-c-9]
Maize - Cecilia observed (%) (maize; 100 g of a.i./ha): 50%
